pKi: −log10 of the molar value.
What was measured:
Adenosine A2a receptor = molecular target: T1, Adenosine A2a receptor (Homo sapiens, UniProt P29274); assay: Adenosine receptor TR-FRET binding assay, A2a; settings: displacement of 100 nM CA200645, CHO cell membranes
T1 construct: expressed in transfected cells; host or cells: CHO cell membranes
Procedure: (§1) All FRET binding experiments were conducted at room temperature in white 384-well plates, in assay binding buffer containing 1× LabMed (Cisbio, France), 100 μg/mL saponin, 1% DMSO and 0.02% pluronic acid. Binding of the fluorescently labelled Adenosine receptor antagonist XAC (CA200645, FRET acceptor) to terbium-labelled A1, A2a, A2b and A3 adenosine receptors (FRET donors) was detected by time-resolved FRET due to the close proximity of the donor and acceptor in a binding event. To investigate the ability of unlabelled test compounds to bind to Adenosine A1, A2a, A2b and A3 receptors, dose response curves were constructed that determined the ability of a range of concentrations to inhibit the binding of 30 nM CA200645 to the A2b receptor and 100 nM CA200645 to the A1, A2a, and A3 receptor.
(§2) Serial dilution (1:3 dilutions) of test compounds in neat DMSO and transfer of a 400 nL sample of test compound into the assay plate was carried out using the Mosquito (TTP Labtech, UK). The compound samples were incubated for 2 hours at room temperature with a fixed concentration of CA200645 defined for each receptor (see above) and CHO cell membranes containing the human Adenosine A1 (0.5 μg/well), A2a (0.3 μg/well), A2b (1 μg/well) or A3 (1 μg/well) receptor in 40 μL of assay buffer. Total and non-specific binding of CA200645 was determined in the absence and presence of 10 μM XAC, respectively.
(§3) Following 2 hours incubation, the level of CA200645 binding was detected on a Pherastar FSX (BMG Labtech, Germany) using standard TR-FRET settings. The terbium donor was excited with three laser flashes at a wavelength of 337 nm, and donor and acceptor emission was detected at 620 nm and 665 nm wavelengths, respectively. FRET ratios were obtained by multiplying the acceptor/donor ratio value by 10,000. Specific binding was determined by subtracting the non-specific binding FRET ratio from the total binding FRET ratio. Compound IC50 curves were analysed using GraphPad Prism 7.0 (GraphPad, USA) and Ki affinity values were determined from the obtained […] values using the method of Cheng and Prusoff.

Adenosine A1 receptor = molecular target: T2, Adenosine A1 receptor (Homo sapiens, UniProt P30542); assay: Adenosine receptor TR-FRET binding assay, A1; settings: Table 9, further testing; displacement of 100 nM CA200645, CHO cell membranes
T2 construct: expressed in transfected cells; host or cells: CHO cell membranes
T2 sequence (P30542 1-326): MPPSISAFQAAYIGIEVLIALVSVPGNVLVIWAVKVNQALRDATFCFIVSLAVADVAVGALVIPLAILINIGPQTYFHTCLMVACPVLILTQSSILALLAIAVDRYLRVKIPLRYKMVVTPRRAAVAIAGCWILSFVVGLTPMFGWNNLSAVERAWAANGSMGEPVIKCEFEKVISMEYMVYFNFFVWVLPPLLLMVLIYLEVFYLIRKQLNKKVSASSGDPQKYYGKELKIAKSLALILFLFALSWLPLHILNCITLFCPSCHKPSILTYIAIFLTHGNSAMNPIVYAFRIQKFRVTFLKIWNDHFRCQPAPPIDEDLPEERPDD
Procedure: as §1, §2, §3

Adenosine A3 receptor = molecular target: T3, Adenosine A3 receptor (Homo sapiens, UniProt P0DMS8); assay: Adenosine receptor TR-FRET binding assay, A3; settings: Table 9, further testing; displacement of 100 nM CA200645, CHO cell membranes; read-out: A3 Ki
T3 construct: expressed in transfected cells; host or cells: CHO cell membranes
T3 sequence (P0DMS8 1-318): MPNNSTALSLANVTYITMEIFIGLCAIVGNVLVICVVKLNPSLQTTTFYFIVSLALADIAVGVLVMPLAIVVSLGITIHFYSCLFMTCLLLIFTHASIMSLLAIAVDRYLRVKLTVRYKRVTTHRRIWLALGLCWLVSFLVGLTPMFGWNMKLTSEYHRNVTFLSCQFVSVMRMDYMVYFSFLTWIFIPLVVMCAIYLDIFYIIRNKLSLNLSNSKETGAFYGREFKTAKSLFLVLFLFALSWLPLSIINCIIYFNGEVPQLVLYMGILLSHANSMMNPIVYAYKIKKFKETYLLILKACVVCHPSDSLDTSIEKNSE
Procedure: as §1, §2, §3

Adenosine A2b receptor = molecular target: T4, Adenosine A2b receptor (Homo sapiens, UniProt P29275); assay: Adenosine receptor TR-FRET binding assay, A2b; settings: Table 9, further testing; displacement of 30 nM CA200645, CHO cell membranes
T4 construct: expressed in transfected cells; host or cells: CHO cell membranes
T4 sequence (P29275 1-332): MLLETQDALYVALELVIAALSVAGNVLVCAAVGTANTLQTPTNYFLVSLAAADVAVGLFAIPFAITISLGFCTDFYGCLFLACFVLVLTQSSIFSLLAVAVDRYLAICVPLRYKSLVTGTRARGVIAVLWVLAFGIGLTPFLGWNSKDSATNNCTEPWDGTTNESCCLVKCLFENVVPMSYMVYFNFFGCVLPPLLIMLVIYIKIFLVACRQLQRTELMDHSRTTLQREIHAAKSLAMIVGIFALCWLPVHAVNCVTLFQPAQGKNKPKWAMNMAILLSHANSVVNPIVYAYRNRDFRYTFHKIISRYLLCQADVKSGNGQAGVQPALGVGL
Procedure: as §1, §2, §3

T1 sequence (P29274 whole entry): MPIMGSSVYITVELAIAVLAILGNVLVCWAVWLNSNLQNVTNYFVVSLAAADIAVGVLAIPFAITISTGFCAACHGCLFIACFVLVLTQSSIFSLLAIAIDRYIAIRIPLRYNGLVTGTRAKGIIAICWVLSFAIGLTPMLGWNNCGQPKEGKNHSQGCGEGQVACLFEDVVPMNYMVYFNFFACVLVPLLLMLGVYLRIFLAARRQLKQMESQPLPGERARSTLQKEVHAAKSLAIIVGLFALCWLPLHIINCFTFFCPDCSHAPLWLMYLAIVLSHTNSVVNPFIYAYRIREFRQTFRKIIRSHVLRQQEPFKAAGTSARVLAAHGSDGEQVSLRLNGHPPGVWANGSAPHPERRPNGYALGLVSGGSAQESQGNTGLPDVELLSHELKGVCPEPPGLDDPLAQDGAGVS

SMILES | pKi (Adenosine A2a receptor; Table 9, further testing) | pKi (Adenosine A1 receptor) | pKi (Adenosine A3 receptor) | pKi (Adenosine A2a receptor; Table 8, Cheng and Prusoff) | pKi (Adenosine A2b receptor)
CC(C)n1ncnc1CNC(=O)c1c(N)nc(-c2cccc(C#N)c2)nc1OCCF [Example 24.4, 4-Amino-2-(3-cyanophenyl)-6-(2-fluoroethoxy)-N-[(2-isopropyl-1,2,4-triazol-3-yl)methyl]pyrimidine-5-carboxamide] | 8.97 | 7.66 | 6.21 | – | –
Cc1cccnc1CNC(=O)c1c(N)nc(-c2ccco2)nc1OCCN1CCNCC1 [Example 23.2, 4-Amino-2-(2-furyl)-N-[(3-methyl-2-pyridyl)methyl]-6-(2-piperazin-1-ylethoxy)pyrimidine-5-carboxamide] | 6.54 | 5.12 | 5.17 | – | –
Cc1cccnc1C(C)NC(=O)c1cnc(-c2ccco2)nc1N (centres unmarked) [Example 5.57, 4-Amino-2-(2-furyl)-N-[1-(3-methyl-2-pyridyl)ethyl]pyrimidine-5-carboxamide] | 7.40 | 5.35 | 5.91 | – | –
Nc1nc(-c2cccc(F)c2)ncc1C(=O)Nc1ccccc1 [Example 4.2, 4-Amino-2-(3-fluorophenyl)-N-phenyl-pyrimidine-5-carboxamide] | 6.95 | – | – | 6.95 | 5.09
Cc1cccnc1CNC(=O)c1c(N)nc(-c2cccc(C#N)c2)nc1OCCF [Example 24.8, 4-Amino-2-(3-cyanophenyl)-6-(2-fluoroethoxy)-N-[(3-methyl-2-pyridyl)methyl]pyrimidine-5-carboxamide] | 10.00 | 8.42 | 7.55 | – | –
Cc1cccnc1CNC(=O)c1c(N)nc(-c2ccco2)nc1-n1cccn1 [Example 19, 4-Amino-2-(2-furyl)-N-[(3-methyl-2-pyridyl)methyl]-6-pyrazol-1-yl-pyrimidine-5-carboxamide] | 6.98 | 6.06 | 6.17 | 6.98 | –
Cc1cccnc1CNC(=O)c1cnc(-c2ccc(F)cc2)nc1N [Example 14, 4-Amino-2-(4-fluorophenyl)-N-[(3-methyl-2-pyridyl)methyl]pyrimidine-5-carboxamide] | 6.13 | 6.13 | 6.69 | 6.13 | –
COc1cccc(OC)c1CNC(=O)c1cnc(-c2ccco2)nc1N [Example 5.31, 4-Amino-N-[(2,6-dimethoxyphenyl)methyl]-2-(2-furyl)pyrimidine-5-carboxamide] | 8.92 | 5.82 | – | – | 5.37
Nc1nc(-c2cccc(F)c2)ncc1C(=O)NCCc1ccc(O)cc1 [Example 5.7, 4-Amino-2-(3-fluorophenyl)-N-[2-(4-hydroxyphenyl)ethyl]pyrimidine-5-carboxamide] | 6.30 | – | – | 6.30 | 5.49
CC(C)n1ccnc1CNC(=O)c1cnc(-c2ccco2)nc1N [Example 5.33, 4-Amino-2-(2-furyl)-N-[(1-isopropylimidazol-2-yl)methyl]pyrimidine-5-carboxamide] | 8.03 | – | – | – | 5.18
CCOc1cccnc1CNC(=O)c1cnc(-c2cccc(F)c2)nc1N [Example 5.8, 4-Amino-N-[(3-ethoxy-2-pyridyl)methyl]-2-(3-fluorophenyl)pyrimidine-5-carboxamide] | 7.68 | – | – | 7.68 | 6.17
Nc1nc(-c2ccco2)ncc1C(=O)NCc1ccc(C(F)(F)F)cc1 [Example 5.28, 4-amino-2-(2-furyl)-N-[[4-(trifluoromethyl)phenyl]methyl]pyrimidine-5-carboxamide] | 6.53 | 5.25 | 5.24 | 6.53 | –
Nc1nc(-c2ccco2)ncc1C(=O)NCc1cc(F)cc(C(F)(F)F)c1 [Example 5.44, 4-Amino-N-[[3-fluoro-5-(trifluoromethyl)phenyl]methyl]-2-(2-furyl)pyrimidine-5-carboxamide] | 7.11 | 6.44 | 5.96 | – | –
Nc1nc(-c2ccco2)ncc1C(=O)NCc1cc2ccccc2cn1 [Example 5.36, 4-Amino-2-(2-furyl)-N-(3-isoquinolylmethyl) pyrimidine-5-carboxamide] | 7.85 | 5.57 | – | – | 6.01
Nc1nc(-c2ccco2)ncc1C(=O)NCc1ncccn1 [Example 5.58, 4-Amino-2-(2-furyl)-N-(pyrimidin-2-ylmethyl)pyrimidine-5-carboxamide] | 6.98 | – | – | – | 5.67
Nc1nc(-c2ccco2)ncc1C(=O)NCc1cc(F)cc(F)c1 [Example 5.17, 4-Amino-N-[(3,5-difluorophenyl)methyl]-2-(2-furyl)pyrimidine-5-carboxamide] | 7.62 | 5.72 | 5.52 | 7.62 | –

More lines, in order of rising pKi (Adenosine A2a receptor; Table 9, further testing), values ahead:

pKi (Adenosine A2a receptor; Table 9, further testing) | pKi (Adenosine A1 receptor) | pKi (Adenosine A3 receptor) | pKi (Adenosine A2a receptor; Table 8, Cheng and Prusoff) | pKi (Adenosine A2b receptor) | SMILES
6.63 | – | 5.34 | – | – | Nc1nc(-c2ccco2)ncc1C(=O)NCc1nccc(C(F)(F)F)n1 [Example 5.59, 4-Amino-2-(2-furyl)-N-[[4-(trifluoromethyl)pyrimidin-2-yl]methyl]pyrimidine-5-carboxamide]
6.82 | – | – | 6.82 | 5.00 | Cc1ccccc1CNC(=O)c1cnc(-c2cccc(F)c2)nc1N [Example 5.10, 4-Amino-2-(3-fluorophenyl)-N-(o-tolylmethyl)pyrimidine-5-carboxamide]
7.02 | – | – | 7.02 | 6.42 | COc1cccc(CNC(=O)c2cnc(-c3cccc(F)c3)nc2N)c1OC [Example 10.10, 4-Amino-N-[(2,3-dimethoxyphenyl)methyl]-2-(3-fluorophenyl)pyrimidine-5-carboxamide]
7.05 | – | – | 7.05 | 6.76 | Nc1nc(-c2cccc(F)c2)ncc1C(=O)NCc1ccccc1F [Example 5.1, 4-Amino-2-(3-fluorophenyl)-N-[(2-fluorophenyl)methyl]pyrimidine-5-carboxamide]
7.27 | 5.39 | 5.83 | – | – | Nc1nc(-c2ccco2)ncc1C(=O)N[C@H](CO)c1ccccc1 [Example 5.61, 4-Amino-2-(2-furyl)-N-[(1S)-2-hydroxy-1-phenyl-ethyl]pyrimidine-5-carboxamide]
7.28 | 5.32 | – | – | 5.96 | Nc1nc(-c2ccco2)ncc1C(=O)NCc1ccc2[nH]ccc2c1 [Example 5.41, 4-Amino-2-(2-furyl)-N-(1H-indol-5-ylmethyl) pyrimidine-5-carboxamide]
7.30 | – | – | 7.30 | 6.86 | Nc1nc(-c2cccc(F)c2)ncc1C(=O)NCc1c(F)cccc1F [Example 5.4, 4-Amino-N-[(2,6-difluorophenyl)methyl]-2-(3-fluorophenyl)pyrimidine-5-carboxamide]
7.48 | – | 5.74 | 7.48 | 5.18 | Nc1nc(-c2ccco2)ncc1C(=O)NCc1ccc(F)cc1 [Example 5.14, 4-Amino-N-[(4-fluorophenyl)methyl]-2-(2-furyl)pyrimidine-5-carboxamide]

— US20200339548A1, “PYRIMIDINE DERIVATIVES AND THEIR USE FOR THE TREATMENT OF CANCER” (Adorx Therapeutics Limited, priority 2017, published 2020)
